These results are taken from patent US12709637B2, “Regulated synthetic gene activation systems” (TRUSTEES OF BOSTON UNIVERSITY, priority 2023, dated 2026).

Entries after “also recorded” stand apart in the source; their conditions may differ.

Assay [1] relates to mCherry reporter in Jurkat T cells. As to the kind of experiment: Loss of function TIMs mutants in GZV-synZiFTR2.0. In kind it is cell-based. The conditions noted are these: GZV induction, 3 days, compared to GZV-synZiFTR2.0 carrying WT TIMs. From the text: FIG. 4A-4B. IWS1 TIMs mechanism of action. (FIG. 4A) IWS1 mutants affecting TIMs employed in this study. WT TIMs domain in GZV-synZiFTR2.0 were replaced by TIMs structural mutant variants (see e.g., SEQ ID NOs: 5-14). The amino acid sequence of the TIMs domain is shown (see e.g., SEQ ID NO: 5). The boxes highlight each of the 3 TIM amino acid sequences (see e.g., SEQ ID NOs: 6-8) and the mutants respectively (see e.g., SEQ ID NOs: 12-14). Different TIM mutations caused loss of interactions with various transcription elongation factors (Transcription factor IIS (TFIIS) and Elongin A (EloA) for the TIM1 mutant; Protein Phosphatase 1 Nuclear Targeting Subunit (PP1-PNUTs) for the TIM2 mutant; lens epithelium-derived growth factor (LEDGF) and H3K36me2/3 binding protein HDGFL2 (HRP2) for the TIM3 mutant). Figure discloses SEQ ID NOS 5-6, 12, 6, 6-7, 7, 13, 7-8, 8, 8, and 14, respectively, in order of appearance. (FIG. 4B) Evaluating loss of function TIMs mutations. GZV-synZiFTR2.04 distinct mutant variants of TIMs were expressed in Jurkat T cells. The circuit outputs were compared to GZV-synZiFTR2.0 carrying WT TIMs. Jurkat T cells were co-transduced with reporter, synZiFTR2.0 and synZiFTR expression lentiviral vectors in an equal ratio. mCherry fluorescence was measured by flow cytometry 3 days after induction by small molecules at the indicated concentrations. Bars represent mean values for three measurements±SD. Statistics represent two-tailed Student's t test; ****P<0.0001.
The TIMs domain contains a series of three unique TIMs that selectively interact with different TND-containing factors. TIM1 interacts with Transcription Factor IIS (TFIIS) and Elongin A (EloA), TIM2 is recognized by the PP1-PNUTS phosphatase, and finally the H3K36me3 readers, lens epithelium-derived growth factor (LEDGF), and H3K36me2/3 binding protein HDGFL2 (HRP2) bind to TIM3. Here, it was investigated which direct interactions between each TIMs and their protein partner is involved in the enhanced transcriptional output by synZiFTR2.0s. […]

Another assay relates to iCasp9+ cells. The conditions noted are these: cited from earlier work.
Assay [2] deals with mCherry fluorescent reporter in Jurkat T cells. Put plainly: hhTAD transcription activators, mCherry reporter in Jurkat T cells. In kind it is cell-based. Conditions: 1 uM GZV or 4-OHT, 72h, compared with p65 and VPR counterparts. An excerpt: FIG. 6A is a schematic and bar graph showing that the IWS1 TIMs domain increases transcriptional activation in an NS3-comprising synTF in the presence of grazoprevir. FIG. 6B is a schematic and bar graph showing that the IWS1 TIMs domain increases transcriptional activation in an ERT2-comprising synTF in the presence of 4OHT.
The humanized hybrid transcription activator domain (see e.g., SEQ ID NOs: 15-16) when integrated into small-molecule inducible transcriptional activation systems is able to robustly and strongly induce transgene expression in mammalian cells. The humanized hybrid transcription activation domain (hhTAD) was attached to an artificial zinc finger proteins (see e.g., U.S. Pat. No. 10,138,493 B2 and US Patent Publication No. 2020/0377564 A1; the contents of each of which are incorporated herein by reference in their entirety) to either a NS3 or ERT2 domain (see e.g., FIG. 5A). To report transcriptional activation, described herein is a […] mCherry fluorescent reporter (see e.g., FIG. 5B). […]
To evaluate the strength of this hhTAD, Jurkat T cells were generated stably expressing both the transcription activator(s) modified with the hhTAD and fluorescent reporter. […] Reporter cells with were treated 1 uM GZV or 4-OHT, and mCherry reporter fluorescence was measured at 72h (see e.g., FIG. 6A-6B).

The conditions of assay [3]: among 2A peptides; cited from earlier work.

On to “M1: TIM1 mutant, L458A and F459A, SEQ ID NO: 9, in GZV-synZiFTR2.0 (SDKKNEEKDAAGSDSESGNEEENLIADIFGESGDEEEEEFTGFN)”, for which, in assay [1], the mCherry fluorescence output result is recorded as “did not affect GZV-synZiFTR2.0 output”.

Take “M2: TIM2 mutant, I476A and F477A, SEQ ID NO: 10, in GZV-synZiFTR2.0 (SDKKNEEKDLFGSDSESGNEEENLIADAAGESGDEEEEEFTGFN)”: the mCherry fluorescence output result in assay [1] is “ablated the mCherry fluorescence output by TIMs-p65 fusion”.

Regarding `CC[C@H](C(=O)N1CCCC[C@H]1C(=O)O[C@H](CCc1ccc(OC)c(OC)c1)c1cccc(OCC(=O)NCCNC(=O)COc2cccc([C@@H](CCc3ccc(OC)c(OC)c3)OC(=O)[C@@H]3CCCCN3C(=O)[C@@H](CC)c3cc(OC)c(OC)c(OC)c3)c2)c1)c1cc(OC)c(OC)c(OC)c1` [AP1903], in the assay with iCasp9+ cells (patients receiving iCasp9 T cells), the “GvHD outcome after AP1903” value is “complete reversal of GvHD; also recorded: Two of the four patients”. Further, the “reduction in iCasp9+ cells” value with iCasp9+ cells (phase I trial, four patients with acute GvHD, within 30 minutes of administration) was 90%.

For the compound “IWS1 TIMs domain: amino acids 449-492 of IWS1, SEQ ID NO: 5, 44 aa; transcriptional effector domain”, the mCherry reporter fluorescence result in assay [2] is “increases their transcriptional activation”.

As for “P2A: 2A self-cleaving peptide derived from porcine teschovirus-1 2A, SEQ ID NO: 341 (GSGATNFSLLKQAGDVEENPGP; VARIANT 1..3 May be absent)”, the efficiency of self-cleaving result in assay [3] is reported as “most efficient”.

With “M3: TIM3 mutant, F488A and F491A, SEQ ID NO: 11, in GZV-synZiFTR2.0 (SDKKNEEKDLFGSDSESGNEEENLIADIFGESGDEEEEEATGAN)”, the mCherry fluorescence output entry in assay [1] was “did not affect GZV-synZiFTR2.0 output”.
